# Data published in the supplement of paper PMC10307832.
# Compound: Cc1ccccc1C(C(=O)NC1CCCCC1)N(C(=O)Cn1ccnc1C)c1cccc(F)c1 [IDH-C35] + NC(=O)Nc1cc(-c2cccc(F)c2)sc1C(=O)N[C@H]1CCCNC1 [AZD7762] (partner 0.2 µM)
# Assay: relative viability (nuclei count vs DMSO), 5 days (fraction); higher = more cells survive
# Conditions: first compound 0.08 µM
# Summary of the method: (§1)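 The day after seeding in 1536-well plates, lung cancer cell lines were treated by pin tool with a single drug, or with a fixed anchor-drug dose together with five library-drug doses (not always all listed) in √10 steps. After 5 days, a combined fix-and-stain solution (final 0.05% Triton X-100, 1% formaldehyde, 1 ug/ml Hoechst) was added. Nuclei counted on 4× images gave relative viability as treated counts over vehicle counts, reported as the median of duplicate plates.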
row,Cell Line,relative viability
1,NCI-H2405,0.857
2,HOP-62,0.624
3,HCC-44,1
4,LU99A,0.326
5,BEN,0.572
6,HARA,0.362
7,HCC-78,0.584
8,NCI-H322M,0.532
9,LCLC-97TM1,0.265
10,A-427,0.709
11,NCI-H441,1.39
12,NCI-H1734,0.575
13,NCI-H460,0.623
14,NCI-H2347,0.781
15,NCI-H1395,0.396
16,201T,0.62

row,Cell Line,relative viability
1,NCI-H1915,0.674
2,HCC-827,0.218
3,LXF-289,1.1
4,NCI-H23,0.239
5,NCI-H647,0.489
6,NCI-H1651,0.454
7,EPLC-272H,0.387
8,NCI-H1792,0.795
9,NCI-H1355,0.805
10,NCI-H3122,1.02
11,NCI-H1437,1.09
12,NCI-H1755,0.47
13,HCC-15,1.33
14,NCI-H1793,0.46
15,PC-14,0.339
16,EKVX,0.75

# Same assay, conditions: first compound 0.253 µM
row,Cell Line,relative viability
1,NCI-H2405,0.771
2,HOP-62,0.553
3,HCC-44,0.982
4,LU99A,0.398
5,BEN,0.772
6,HARA,0.422
7,HCC-78,0.66
8,NCI-H322M,0.65
9,LCLC-97TM1,0.384
10,A-427,0.725
11,NCI-H441,1.31
12,NCI-H1734,0.623
13,NCI-H460,0.663
14,NCI-H2347,0.799
15,NCI-H1395,0.408
16,201T,0.638

row,Cell Line,relative viability
1,NCI-H1915,0.7
2,HCC-827,0.266
3,LXF-289,1.06
4,NCI-H23,0.253
5,NCI-H647,0.488
6,NCI-H1651,0.518
7,EPLC-272H,0.266
8,NCI-H1792,0.725
9,NCI-H1355,0.889
10,NCI-H3122,0.996
11,NCI-H1437,1.12
12,NCI-H1755,0.574
13,HCC-15,1.1
14,NCI-H1793,0.446
15,PC-14,0.427
16,EKVX,0.819

# Same assay, conditions: first compound 0.8 µM
row,Cell Line,relative viability
1,NCI-H2405,0.815
2,HOP-62,0.739
3,HCC-44,0.999
4,LU99A,0.396
5,BEN,0.679
6,HARA,0.318
7,HCC-78,0.615
8,NCI-H322M,0.476
9,LCLC-97TM1,0.143
10,A-427,0.687
11,NCI-H441,1.09
12,NCI-H1734,0.532
13,NCI-H460,0.609
14,NCI-H2347,0.884
15,NCI-H1395,0.407
16,201T,0.615

row,Cell Line,relative viability
1,NCI-H1915,0.696
2,HCC-827,0.221
3,LXF-289,1.13
4,NCI-H23,0.229
5,NCI-H647,0.424
6,NCI-H1651,0.463
7,EPLC-272H,0.215
8,NCI-H1792,0.657
9,NCI-H1355,0.715
10,NCI-H3122,1.02
11,NCI-H1437,1.17
12,NCI-H1755,0.453
13,HCC-15,1.08
14,NCI-H1793,0.46
15,PC-14,0.32
16,EKVX,0.725

# Same assay, conditions: first compound 2.53 µM
row,Cell Line,relative viability
1,NCI-H2405,0.913
2,HOP-62,0.519
3,HCC-44,1.03
4,LU99A,0.335
5,BEN,0.586
6,HARA,0.22
7,HCC-78,0.738
8,NCI-H322M,0.538
9,A-427,0.679
10,NCI-H441,1.21
11,NCI-H1734,0.49
12,NCI-H460,0.586
13,NCI-H2347,0.718
14,NCI-H1395,0.446
15,201T,0.514
16,NCI-H1915,0.663
17,HCC-827,0.206
18,LXF-289,1.06
19,NCI-H23,0.359
20,NCI-H647,0.42
21,NCI-H1651,0.438
22,NCI-H1792,0.719
23,NCI-H1355,0.72
24,NCI-H3122,0.987
25,NCI-H1437,1.06
26,NCI-H1755,0.452
27,NCI-H1793,0.349
28,PC-14,0.302
29,EKVX,0.803

# Same assay, conditions: first compound 8 µM
row,Cell Line,relative viability
1,NCI-H2405,0.768
2,HOP-62,0.532
3,HCC-44,1.01
4,LU99A,0.36
5,BEN,0.683
6,HARA,0.383
7,HCC-78,0.732
8,NCI-H322M,0.546
9,LCLC-97TM1,0.192
10,A-427,0.707
11,NCI-H441,0.98
12,NCI-H1734,0.551
13,NCI-H460,0.578
14,NCI-H2347,0.658
15,NCI-H1395,0.403
16,201T,0.603

row,Cell Line,relative viability
1,NCI-H1915,0.716
2,HCC-827,0.228
3,LXF-289,1.19
4,NCI-H23,0.272
5,NCI-H647,0.418
6,NCI-H1651,0.413
7,EPLC-272H,0.305
8,NCI-H1792,0.609
9,NCI-H1355,0.657
10,NCI-H3122,1.03
11,NCI-H1437,1.08
12,NCI-H1755,0.462
13,HCC-15,1.35
14,NCI-H1793,0.443
15,PC-14,0.387
16,EKVX,0.756

# Compound: Cc1ccccc1C(C(=O)NC1CCCCC1)N(C(=O)Cn1ccnc1C)c1cccc(F)c1 [IDH-C35] + Nc1ncn([C@H]2C[C@H](O)[C@@H](CO)O2)c(=O)n1 [Decitabine] (partner 2 µM)
# Assay: as above
# Conditions: first compound 0.08 µM
# Summary of the method: as §1
row,Cell Line,relative viability
1,NCI-H2405,0.701
2,HOP-62,0.175
3,HCC-44,0.997
4,LU99A,0.963
5,BEN,0.683
6,HARA,0.434
7,HCC-78,0.701
8,NCI-H322M,0.686
9,LCLC-97TM1,0.219
10,A-427,0.622
11,NCI-H441,0.279
12,NCI-H1734,0.537
13,NCI-H460,0.541
14,NCI-H2347,0.647
15,NCI-H1395,0.695
16,201T,0.871

row,Cell Line,relative viability
1,NCI-H1915,0.278
2,HCC-827,0.309
3,LXF-289,0.405
4,NCI-H23,0.332
5,NCI-H647,0.45
6,NCI-H1651,0.528
7,EPLC-272H,0.357
8,NCI-H1792,0.45
9,NCI-H1355,0.347
10,NCI-H3122,0.432
11,NCI-H1437,0.56
12,NCI-H1755,0.685
13,HCC-15,0.61
14,NCI-H1793,0.519
15,PC-14,0.211
16,EKVX,0.343

# Same assay, conditions: first compound 0.253 µM
row,Cell Line,relative viability
1,NCI-H2405,0.751
2,HOP-62,0.237
3,HCC-44,0.914
4,LU99A,0.853
5,BEN,0.707
6,HARA,0.438
7,HCC-78,0.579
8,NCI-H322M,0.701
9,LCLC-97TM1,0.247
10,A-427,0.57
11,NCI-H441,0.23
12,NCI-H1734,0.524
13,NCI-H460,0.46
14,NCI-H2347,0.651
15,NCI-H1395,0.649
16,201T,0.839

row,Cell Line,relative viability
1,NCI-H1915,0.248
2,HCC-827,0.318
3,LXF-289,0.401
4,NCI-H23,0.35
5,NCI-H647,0.344
6,NCI-H1651,0.629
7,EPLC-272H,0.392
8,NCI-H1792,0.48
9,NCI-H1355,0.379
10,NCI-H3122,0.428
11,NCI-H1437,0.56
12,NCI-H1755,0.639
13,HCC-15,0.546
14,NCI-H1793,0.454
15,PC-14,0.206
16,EKVX,0.399

# Same assay, conditions: first compound 0.8 µM
row,Cell Line,relative viability
1,NCI-H2405,0.652
2,HOP-62,0.229
3,HCC-44,0.91
4,LU99A,0.944
5,BEN,0.681
6,HARA,0.625
7,HCC-78,0.703
8,NCI-H322M,0.695
9,LCLC-97TM1,0.255
10,A-427,0.598
11,NCI-H441,0.272
12,NCI-H1734,0.528
13,NCI-H460,0.482
14,NCI-H2347,0.661
15,NCI-H1395,0.676
16,201T,0.86

row,Cell Line,relative viability
1,NCI-H1915,0.293
2,HCC-827,0.282
3,LXF-289,0.38
4,NCI-H23,0.336
5,NCI-H647,0.401
6,NCI-H1651,0.593
7,EPLC-272H,0.344
8,NCI-H1792,0.476
9,NCI-H1355,0.353
10,NCI-H3122,0.386
11,NCI-H1437,0.576
12,NCI-H1755,0.757
13,HCC-15,0.689
14,NCI-H1793,0.535
15,PC-14,0.239
16,EKVX,0.4

# Same assay, conditions: first compound 2.53 µM
row,Cell Line,relative viability
1,NCI-H2405,0.775
2,HOP-62,0.206
3,HCC-44,0.939
4,LU99A,0.867
5,BEN,0.707
6,HARA,0.504
7,HCC-78,0.605
8,NCI-H322M,0.718
9,A-427,0.526
10,NCI-H441,0.244
11,NCI-H1734,0.483
12,NCI-H460,0.467
13,NCI-H2347,0.599
14,NCI-H1395,0.754
15,201T,0.839
16,NCI-H1915,0.281
17,HCC-827,0.317
18,LXF-289,0.371
19,NCI-H23,0.332
20,NCI-H647,0.42
21,NCI-H1651,0.615
22,NCI-H1792,0.539
23,NCI-H1355,0.419
24,NCI-H3122,0.473
25,NCI-H1437,0.572
26,NCI-H1755,0.708
27,HCC-15,0.579
28,NCI-H1793,0.586
29,PC-14,0.226
30,EKVX,0.321

# Same assay, conditions: first compound 8 µM
row,Cell Line,relative viability
1,NCI-H2405,0.668
2,HOP-62,0.206
3,HCC-44,0.901
4,LU99A,0.849
5,BEN,0.75
6,HARA,0.505
7,HCC-78,0.707
8,NCI-H322M,0.78
9,LCLC-97TM1,0.238
10,A-427,0.58
11,NCI-H441,0.228
12,NCI-H1734,0.499
13,NCI-H460,0.466
14,NCI-H2347,0.654
15,NCI-H1395,0.653
16,201T,0.836

row,Cell Line,relative viability
1,NCI-H1915,0.277
2,HCC-827,0.296
3,LXF-289,0.415
4,NCI-H23,0.312
5,NCI-H647,0.366
6,NCI-H1651,0.555
7,EPLC-272H,0.384
8,NCI-H1792,0.533
9,NCI-H1355,0.344
10,NCI-H3122,0.458
11,NCI-H1437,0.525
12,NCI-H1755,0.708
13,HCC-15,0.635
14,NCI-H1793,0.476
15,PC-14,0.214
16,EKVX,0.339
